Measured values published in patent US7528175B2, “Method of treating airway diseases with beta-adrenergic inverse agonists” (Inverseon, Inc., priority 2005, dated 2009).
Read-outs that look alike come from different tables or passages of the source.

Legend:
[1] = system: ovalbumin-sensitized, allergen-challenged mice; assay: Acute nadolol and aminophylline, methacholine-induced bronchoconstriction; assay type: in vivo; conditions: nadolol 0.72 mg/kg i.p. 15 minutes prior to methacholine
Procedure: At time point 1 (time=−10 min) baseline airway resistance of the mice was determined.

asthmatic mice [2] = assay: Total number of immune cells in BALF (Example 12); assay type: in vivo; conditions: did not reach statistical significance
Procedure: Bronchial alveolar lavage fluid was collected from treated animals and total immune cell number was determined and the total number of eosinophils was also determined. Additionally, the interleukin 10 (IL-10) levels were determined in the mice.

[3] = cited from earlier work
β2-adrenergic receptor [4] = molecular target: β2-adrenergic receptor (Mus musculus, UniProt P18762); assay type: binding, mice
Procedure: (§1) β2-adrenergic receptor numbers were measured in asthmatic mice as follows. […] Mice were sacrificed and lung membranes were isolated as follows. Frozen lung tissue was homogenized in an ice-cold buffer containing 0.32 M sucrose and 25 mM Tris (pH 7.4) using a polytron (Pro 200, Pro Scientific, Inc.). The homogenate was centrifuged at 1000×g for 10 min at 4° C. The resulting supernatant was centrifuged at 40,000×g for 20 min at 4° C. The pellet was suspended in an ice-cold 25 mM Tris-HCl buffer (pH 7.4) and centrifuged at 40,000×g for 20 min at 4° C. The final pellet was suspended in 200 μL of 25 mM Tris-HCl (pH 7.4); membrane protein concentration was determined by BCA protein assay kit. […] The incubation was done at 37° C. for 2 h and terminated by rapid vacuum filtration through glass fiber filters. The filters were washed three times with 250 μL of cold wash buffer (25 mM Tris-HCl, pH 7.4) and the radioactivity determined in a counter. […] Receptor densities are expressed as femtomoles of sites per milligram of protein. Bmax is determined by nonlinear regression of the saturation binding curves.

β2-adrenergic receptor [5] = assay type: binding, mice; conditions: 2 days of administration
Procedure: as §1

asthmatic mice [6] = assay: Airway resistance (Raw) response to methacholine in murine model of asthma (forced oscillation); assay type: in vivo, Balb/cJ mice
Procedure: Balb/cJ mice aged 6 weeks (Jackson Animal Laboratory, Bar Harbor, Me.) were housed under specific pathogen-free conditions and fed a chicken ovalbumin-free diet. The Animal Research Ethics Boards of both the University of Houston and the Baylor College of Medicine approved all experiments reported here. […] Mice were sensitized with subcutaneous injection of 25 μg of ovalbumin adsorbed to aluminum hydroxide on protocol days 2, 9, and 16. Subsequently, mice were given 50 μL of saline solution containing 25 μg of ovalbumin intranasally, on a daily basis, from protocol days 23 through 27. A group of ovalbumin-sensitized saline-challenged mice serves as controls for systemic sensitization and respiratory challenges with ovalbumin. Prior to intranasal administrations, mice were sedated with halothane vapor.
To examine the effects of duration of β-adrenergic ligand therapy on the phenotype of the murine model of asthma, the experimental drugs were administered either acutely or chronically to different groups of asthmatic mice.
Asthmatic mice on acute therapy were given a single intravenous bolus infusion of either β-adrenergic drug or normal saline on protocol day 28, 15 minutes before airway responsiveness to methacholine was determined. […] […] […] These concentrations were chosen based on those producing therapeutic effects in mice in previously published studies. The non-asthmatic mice were fed normal chow.
On protocol day 28, mice were anesthetized, tracheotomized, and connected to a computer-controlled small animal ventilator (Flexivent, Scientific Respiratory Equipment, Inc., Montreal, Canada). Airway resistance (Raw) was measured using the forced oscillation technique. The cellular composition of bronchoalveolar lavage fluid (BALF) was also determined.
To induce airway constriction, a solution containing 150 μg/mL of acetyl-α-methylcholine chloride (methacholine) (Sigma Chemical, St. Louis, Mo.) was infused intravenously at constant rates using a syringe infusion pump (Raze Scientific Instruments, Stanford, Conn.). […] Each methacholine dose was administered for 3 to 5 minutes, during which data were sampled at 1-minute intervals and then averaged.
The complex input impedance of the respiratory system was computed and the value of the real part of respiratory system impedance at 19.75 Hz was taken to reflect the magnitude of airway resistance (Raw). To examine the degree of airway responsiveness of each animal, the values for Raw as a function of methacholine doses were plotted. The largest value for Raw achieved in response to methacholine stimulation was referred to as Rawpeak. For mice that achieved a plateau in the methacholine dose-Raw response curve, the ED50 was calculated by linear interpolation using the GraphPad Prism4 (GraphPad Software, Inc.). […] The Bonferroni test was used to examine the statistical differences between experimental groups. The effects of acute drug treatments on baseline respiratory system mechanics were assessed using a two-tailed paired t-test. A value of P<0.05 was considered significant.
For these experiments, salbutamol was used for chronic administration at 0.5 mg/kg/day with a minipump and for acute administration at 0.15 mg/kg by i.v. bolus 15 minutes prior to challenge. Alprenolol was used at a high dose of 7200 ppm in chow or at a low dose of 720 ppm in chow. Carvedilol was used at a high dose of 2400 ppm in chow or at a low dose of 720 ppm in chow.

β2-adrenergic receptor (Mus musculus, UniProt P18762), sequence (P18762 whole entry): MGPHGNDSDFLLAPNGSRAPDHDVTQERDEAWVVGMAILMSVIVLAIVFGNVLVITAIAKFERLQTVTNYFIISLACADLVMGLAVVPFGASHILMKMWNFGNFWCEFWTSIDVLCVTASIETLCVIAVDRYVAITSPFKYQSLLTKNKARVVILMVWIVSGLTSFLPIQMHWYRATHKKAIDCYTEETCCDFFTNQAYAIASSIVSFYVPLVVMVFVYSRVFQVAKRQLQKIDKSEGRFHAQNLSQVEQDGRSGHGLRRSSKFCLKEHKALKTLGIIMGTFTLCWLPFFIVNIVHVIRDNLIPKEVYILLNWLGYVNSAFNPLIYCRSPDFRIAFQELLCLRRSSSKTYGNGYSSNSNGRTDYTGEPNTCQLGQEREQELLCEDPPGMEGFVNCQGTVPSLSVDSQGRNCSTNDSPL
Text for adults with mild asthma: Study Design: The study is an open-label Phase IIa, proof of principle, 11-week, dose escalation study in mild asthma. Up to twelve subjects with mild asthma, not taking inhaled corticosteroids or other controller medications are to be recruited from a single clinical research center. […] Combivent rescue medication was provided to subjects during the run-in period to replace their own rescue medication which typically is Albuterol (salbutamol a beta 2 partial agonist).
The subjects are maintained at their maximum tolerated dose for a minimum of 4 weeks.
All the following criteria had to be met for dose escalation otherwise the dose was kept at maintenance level (same dose), reduced to previous lower tolerated dose or the subject was terminated from the study.
Data collected at baseline and during study visits include lung function (spirometry—FEV1 and daily peak flow rates —PEFR), asthma symptoms via dairy cards), heart rate and blood pressure. In addition, airway hyper-responsiveness (methacholine challenge test—PC20) and Asthma Control Questionaire (Juniper ACQ) will be performed. Blood is collected to monitor beta adrenergic receptor levels in lymphocytes and baseline laboratory evaluation.

CC(C)(C)NCC(O)COc1cccc2c1CC(O)C(O)C2 (centres unmarked) [nadolol]
baseline airway resistance [1]: same baseline airway resistance as non-drug treated sensitized and allergen-challenged mice
lower number of cells in BALF compared to non-drug-treated (S/C) mice (asthmatic mice [2]; acute treatment): approximately 25%
lower number of cells in BALF compared to non-drug-treated (S/C) mice (asthmatic mice [2]; chronic treatment): approximately 25%
ACQ Score Δ (adults with mild asthma; Asthma Control Questionnaire, absolute change from baseline, per subject): results were mixed
PEFR % Change baseline (adults with mild asthma; average last 14 days of treatment vs last 14 days of run-in, per subject): essentially no effect
subjects with reduction in airway twitchiness (increased PC20) (adults with mild asthma; chronic nadolol): 4 of 5
subjects with PC20 doubling doses within the 1.5 limit (adults with mild asthma; chronic nadolol, 5 subjects): Two subjects
subjects with increases of doubling doses greater than 1.5 (adults with mild asthma; chronic nadolol, 5 subjects): 3 subjects
PC20 Doubling Dose (adults with mild asthma; methacholine PC20 change from baseline at the end of the trial, per subject): more pronounced effect on airway hyper-responsiveness
Puffs/Day Mean Change per Day (adults with mild asthma; rescue medication use, absolute change from baseline, per subject): results were mixed
time to maximum drug in the bloodstream ([3]; immediate-release oral tablets once a day): about 3.5 hours
half-life ([3]; immediate-release oral tablets): about 16 hours
Bmax (β2-adrenergic receptor [4]; 15 Minutes drug treatment, lung membranes of asthmatic mice, mean±SEM): 181.9 ± 48.28 femtomoles of sites per milligram of protein
βmax (β2-adrenergic receptor [4]; 28 Days drug treatment, lung membranes of asthmatic mice, mean±SEM): 785.5 ± 154.8 femtomoles of sites per milligram of protein
Increased β2AR density (β2-adrenergic receptor [4]; 15 minutes of administration): no
Increased β2AR density (β2-adrenergic receptor [4]; 28 days of administration): showed an increase in receptor density at both 2 days and 28 days
Increased β2AR density (β2-adrenergic receptor [4]; 28 days of administration, listed as Nadolol): yes
level of the β2-adrenergic receptor (β2-adrenergic receptor [4]; chronic treatment, asthmatic mice): nearly eightfold increase
Increased β2AR density (β2-adrenergic receptor [5]): showed an increase in receptor density at both 2 days and 28 days
Increased β2AR density (β2-adrenergic receptor [5]; listed as Nadolol): yes
airway resistance (Raw) (asthmatic mice [6]; 1 ppm in chow): identical to the untreated mice
Decreased Raw (asthmatic mice [6]; 15 minutes of administration): no
Decreased Raw (asthmatic mice [6]; 2 days of administration): yes
Decreased Raw (asthmatic mice [6]; 28 days of administration): yes
airway function (asthmatic mice [6]; acute, parenteral administration, asthmatic mice): significant reduction in airway function
airway responsiveness to methacholine provocation (Raw) (asthmatic mice [6]; asthmatic mice, acute: single intravenous bolus 15 minutes before methacholine): enhanced the airway responsiveness
airway responsiveness to methacholine provocation (Raw) (asthmatic mice [6]; asthmatic mice, chronic administration for 28 days): produced a decrease in airway responsiveness, which was more pronounced than that caused by carvedilol treatment
protection from airway hyperresponsiveness (asthmatic mice [6]; chronic administration, low and high doses in chow (FIGS. 8D-8G)): providing protection from airway hyperresponsiveness
observed airway adverse effects (asthmatic mice [6]; orally in the animal chow at 250 ppm): noticeably wheezing and airway distress
